Activity calls are given as the source filed them.
Experiments:
[1] = target: Melanin-concentrating hormone receptor 1 (Homo sapiens, UniProt Q99705); assay: Late-stage fluorescence-based counterscreen for antagonists of the G-protein coupled receptor 7 (GPR7): cell-based dose response assay to identify antagonists of the melanin-concentrating hormone receptor 1 (MCHR1) Set 6.; type: functional
[2] = test system: Candida albicans; assay: growth inhibition of azole-resistant C. albicans, dose response, CaCi-8 strain, Alamar Blue, dry powder, set 3 (AID 488905); type: functional, organism-based
[3] = test system: Candida albicans; assay: reversal of fluconazole resistance in C. albicans, dose response, CaCi-2 strain, Alamar Blue, dry powder, set 3 (AID 488907); type: functional, organism-based
[4] = target: T1, Apoptotic protease-activating factor 1 (Homo sapiens, UniProt O14727); assay: SAR analysis of small molecule Activators of Apaf-1 in a Fluorescent assay - set 2.; type: functional; details: read-out: EC50_Mean
T1 sequence (O14727 whole entry): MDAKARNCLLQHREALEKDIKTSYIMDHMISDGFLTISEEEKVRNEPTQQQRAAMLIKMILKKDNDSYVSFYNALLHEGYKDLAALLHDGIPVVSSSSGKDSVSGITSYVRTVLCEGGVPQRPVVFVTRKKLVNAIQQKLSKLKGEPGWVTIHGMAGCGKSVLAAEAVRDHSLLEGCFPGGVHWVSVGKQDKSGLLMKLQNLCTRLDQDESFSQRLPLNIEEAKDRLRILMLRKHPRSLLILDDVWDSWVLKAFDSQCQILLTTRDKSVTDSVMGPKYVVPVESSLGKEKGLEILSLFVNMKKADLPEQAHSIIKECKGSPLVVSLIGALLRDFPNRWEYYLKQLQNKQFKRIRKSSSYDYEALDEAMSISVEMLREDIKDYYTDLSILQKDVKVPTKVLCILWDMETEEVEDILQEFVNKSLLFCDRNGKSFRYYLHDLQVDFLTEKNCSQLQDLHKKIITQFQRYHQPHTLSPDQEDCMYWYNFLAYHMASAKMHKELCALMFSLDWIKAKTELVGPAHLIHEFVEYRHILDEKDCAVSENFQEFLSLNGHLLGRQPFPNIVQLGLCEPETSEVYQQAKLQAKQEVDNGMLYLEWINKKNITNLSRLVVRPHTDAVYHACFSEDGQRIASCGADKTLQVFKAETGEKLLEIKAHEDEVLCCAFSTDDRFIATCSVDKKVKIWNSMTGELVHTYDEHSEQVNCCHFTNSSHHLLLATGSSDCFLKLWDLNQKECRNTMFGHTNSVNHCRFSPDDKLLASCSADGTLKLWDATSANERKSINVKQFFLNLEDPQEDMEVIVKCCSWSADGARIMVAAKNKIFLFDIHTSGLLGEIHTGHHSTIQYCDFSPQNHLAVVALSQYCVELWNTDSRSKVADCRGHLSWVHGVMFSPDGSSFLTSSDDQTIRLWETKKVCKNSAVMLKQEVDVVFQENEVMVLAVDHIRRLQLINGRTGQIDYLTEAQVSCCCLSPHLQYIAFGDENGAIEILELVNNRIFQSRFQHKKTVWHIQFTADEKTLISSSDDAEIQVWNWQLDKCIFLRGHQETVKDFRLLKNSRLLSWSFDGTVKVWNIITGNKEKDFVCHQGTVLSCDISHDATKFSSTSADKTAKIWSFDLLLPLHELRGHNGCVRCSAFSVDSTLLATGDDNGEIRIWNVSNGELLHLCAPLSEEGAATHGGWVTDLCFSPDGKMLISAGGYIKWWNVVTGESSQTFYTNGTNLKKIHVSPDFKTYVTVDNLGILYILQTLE

[5] = SAR analysis of small molecule activators of Apaf-1 using a LZ-Caspase-9/Caspase-3 Fluorescent Selectivity assay - Set 2.; type: functional; details: read-out: EC50_Mean
[6] = target: T2, Caspase-3 (Homo sapiens, UniProt P42574); assay: caspase-3 inhibitors as off-family protease, SAR follow-up, selectivity assay for SENP protease inhibitor project, biochemical, luminescence, set 2 (AID 588599); type: functional
T2 sequence (P42574 whole entry): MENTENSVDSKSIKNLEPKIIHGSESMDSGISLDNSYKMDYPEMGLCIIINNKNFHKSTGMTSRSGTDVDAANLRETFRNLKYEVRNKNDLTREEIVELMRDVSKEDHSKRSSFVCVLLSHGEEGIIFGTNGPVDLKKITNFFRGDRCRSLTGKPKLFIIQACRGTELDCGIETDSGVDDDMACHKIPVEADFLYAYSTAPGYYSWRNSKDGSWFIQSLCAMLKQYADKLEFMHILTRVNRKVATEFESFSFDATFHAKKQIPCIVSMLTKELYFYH

[7] = target: T3, Sentrin-specific protease 8 (Homo sapiens, UniProt Q96LD8); assay: SENP8 protease inhibitors, SAR follow-up, biochemical, luminescence, set 2 (AID 588601); type: functional
T3 sequence (Q96LD8 whole entry): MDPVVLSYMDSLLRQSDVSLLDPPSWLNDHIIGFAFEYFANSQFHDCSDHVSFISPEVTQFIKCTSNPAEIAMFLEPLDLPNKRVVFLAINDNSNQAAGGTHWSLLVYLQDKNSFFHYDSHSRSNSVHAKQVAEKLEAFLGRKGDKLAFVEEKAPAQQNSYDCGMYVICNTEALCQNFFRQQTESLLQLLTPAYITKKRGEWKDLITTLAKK

[8] = target: T4, Sentrin-specific protease 7 (Homo sapiens, UniProt Q9BQF6); assay: SENP7 protease inhibitors, SAR follow-up, biochemical, luminescence, set 2 (AID 588600); type: functional
T4 sequence (Q9BQF6 whole entry): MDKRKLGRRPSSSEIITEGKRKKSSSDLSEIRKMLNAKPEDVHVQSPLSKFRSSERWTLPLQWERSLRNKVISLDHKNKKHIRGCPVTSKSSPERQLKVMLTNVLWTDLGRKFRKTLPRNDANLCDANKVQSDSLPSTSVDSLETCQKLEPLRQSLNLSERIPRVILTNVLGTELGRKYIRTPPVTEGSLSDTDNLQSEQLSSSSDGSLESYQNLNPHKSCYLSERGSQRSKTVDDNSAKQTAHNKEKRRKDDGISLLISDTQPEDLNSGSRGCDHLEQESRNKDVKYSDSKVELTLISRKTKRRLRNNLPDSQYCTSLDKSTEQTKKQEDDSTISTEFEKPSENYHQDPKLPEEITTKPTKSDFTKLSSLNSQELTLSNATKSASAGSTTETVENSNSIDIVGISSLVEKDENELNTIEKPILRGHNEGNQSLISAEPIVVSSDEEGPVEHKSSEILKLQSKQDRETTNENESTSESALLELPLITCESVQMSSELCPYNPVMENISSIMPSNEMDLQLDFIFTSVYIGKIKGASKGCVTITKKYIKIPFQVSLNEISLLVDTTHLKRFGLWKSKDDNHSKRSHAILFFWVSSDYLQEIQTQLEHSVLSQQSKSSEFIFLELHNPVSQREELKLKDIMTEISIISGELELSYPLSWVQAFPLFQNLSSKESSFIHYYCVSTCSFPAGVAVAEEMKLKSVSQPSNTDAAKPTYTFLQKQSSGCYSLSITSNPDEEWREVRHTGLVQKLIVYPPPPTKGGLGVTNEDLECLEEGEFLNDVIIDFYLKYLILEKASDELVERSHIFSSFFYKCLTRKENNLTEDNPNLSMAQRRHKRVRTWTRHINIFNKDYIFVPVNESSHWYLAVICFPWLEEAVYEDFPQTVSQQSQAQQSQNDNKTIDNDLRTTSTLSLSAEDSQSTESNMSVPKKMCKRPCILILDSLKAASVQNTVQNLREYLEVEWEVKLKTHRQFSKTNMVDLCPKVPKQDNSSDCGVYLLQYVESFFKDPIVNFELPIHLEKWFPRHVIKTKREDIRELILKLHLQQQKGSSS

[9] = target: T5, Sentrin-specific protease 6 (Homo sapiens, UniProt Q9GZR1); assay: SENP6 protease inhibitors, SAR follow-up, biochemical, luminescence, set 2 (AID 588598); type: functional
T5 sequence (Q9GZR1 whole entry): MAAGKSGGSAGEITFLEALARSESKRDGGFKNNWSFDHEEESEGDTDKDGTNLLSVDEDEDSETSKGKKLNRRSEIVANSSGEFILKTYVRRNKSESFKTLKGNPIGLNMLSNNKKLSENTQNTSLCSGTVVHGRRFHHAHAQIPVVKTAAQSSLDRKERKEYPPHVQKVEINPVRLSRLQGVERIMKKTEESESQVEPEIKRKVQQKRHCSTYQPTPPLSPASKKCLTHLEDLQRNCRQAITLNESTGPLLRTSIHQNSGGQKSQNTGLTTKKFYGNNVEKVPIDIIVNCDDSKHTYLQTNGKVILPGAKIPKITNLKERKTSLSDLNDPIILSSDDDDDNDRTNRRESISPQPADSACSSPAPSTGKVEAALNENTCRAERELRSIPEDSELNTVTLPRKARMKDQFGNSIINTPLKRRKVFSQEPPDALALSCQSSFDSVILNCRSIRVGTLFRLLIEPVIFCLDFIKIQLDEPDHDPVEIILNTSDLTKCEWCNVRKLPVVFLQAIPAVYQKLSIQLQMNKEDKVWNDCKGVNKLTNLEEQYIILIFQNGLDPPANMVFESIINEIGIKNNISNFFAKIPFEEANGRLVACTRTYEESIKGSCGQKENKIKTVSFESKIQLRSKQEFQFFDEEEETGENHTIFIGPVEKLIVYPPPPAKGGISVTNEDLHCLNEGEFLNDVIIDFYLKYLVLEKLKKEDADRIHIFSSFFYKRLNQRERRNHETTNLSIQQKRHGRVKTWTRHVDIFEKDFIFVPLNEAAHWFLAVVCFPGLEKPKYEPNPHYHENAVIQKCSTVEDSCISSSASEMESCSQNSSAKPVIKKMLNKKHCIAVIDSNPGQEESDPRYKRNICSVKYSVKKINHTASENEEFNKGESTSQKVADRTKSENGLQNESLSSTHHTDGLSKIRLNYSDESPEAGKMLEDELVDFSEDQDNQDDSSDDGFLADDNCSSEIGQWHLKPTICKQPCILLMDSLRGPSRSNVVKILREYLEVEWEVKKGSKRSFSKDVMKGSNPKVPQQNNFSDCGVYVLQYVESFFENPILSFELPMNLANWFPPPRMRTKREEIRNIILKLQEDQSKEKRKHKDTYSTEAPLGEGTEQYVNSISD

Chain of Melanin-concentrating hormone receptor 1 (Q99705 whole entry): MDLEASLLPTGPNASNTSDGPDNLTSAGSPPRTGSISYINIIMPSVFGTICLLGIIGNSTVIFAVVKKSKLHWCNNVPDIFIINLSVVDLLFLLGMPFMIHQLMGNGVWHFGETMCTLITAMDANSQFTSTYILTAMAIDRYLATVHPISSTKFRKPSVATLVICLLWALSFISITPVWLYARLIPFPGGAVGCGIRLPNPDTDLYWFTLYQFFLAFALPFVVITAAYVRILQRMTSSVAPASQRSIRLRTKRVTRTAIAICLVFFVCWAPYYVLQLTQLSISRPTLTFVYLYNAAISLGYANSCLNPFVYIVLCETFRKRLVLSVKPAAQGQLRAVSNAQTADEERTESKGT

Q: For COC(=O)c1ccccc1Cn1ncc(Cl)c(Oc2ccc(OC)cc2)c1=O, which IC50 [1] is on record?
A: 1.16 µM (active)

Q: Which AC50 [2] does the source give for Cc1ccc(N2CCN(C(=O)c3ccc(Cl)cc3)CC2)nc1 here?
A: 25.4 µM (active)

Q: What about the AC50 [3] of the same molecule?
A: 0.413 µM (active)

Q: For COc1ccc(OC)c(C2=NOC(C(=O)O)C2)c1 (centres undefined), which EC50 [4] is on record?
A: > 100 µM (inactive)

Q: What about the EC50 [5] of the same molecule?
A: > 100 µM (inactive)

Q: With CN(C(=O)c1cccc(Br)c1)c1nc2ccccc2s1 as the molecule, how does the IC50 [6] read?
A: > 99 µM (inactive)

Q: What about the IC50 [7] of the same molecule?
A: > 99 µM (inactive)

Q: What about the IC50 [8] of the same molecule?
A: > 99 µM (inactive)

Q: And the IC50 [9]?
A: > 99 µM (inactive)

— ChEMBL document CHEMBL1201862, “PubChem BioAssay data set” (2004)
